Experimental data from paper PMC6009881, “New sulfurated derivatives of cinnamic acids and rosmaricine as inhibitors of STAT3 and NF-κB transcription factors” (Journal of Enzyme Inhibition and Medicinal Chemistry, 2017).
Where two headings read alike, the source gives them in different places.

Columns and labels:
[1] = biological target: T1, STAT3-SH2 domain (Homo sapiens, UniProt P40763); experiment: STAT AlphaScreen-based assay (STAT3); type: binding; details: for IC50 / inhibition at 30 µM: AlphaScreen assay; for IC50: read-out: STAT3 IC50 ±SD; for inhibition at 30 µM: read-out: STAT3 % inhibition ± SD at 30 μM
[2] = system: NF-κB promoter activity in HCT-116 cells; experiment: Luciferase reported NF-κB promoter activity assay; type: cell-based; details: Homo sapiens, 2 h pre-treatment, TNF-α 10 ng/ml, NA = not active up to 100 μM, read-out: NF-κB promoter assay (HCT-116) IC50 ±SD
Experimental: To measure the NF-κB promoter activity, HCT-116 cells were seeded in 100 mm dish and transiently transfected with 6 μg of DNA (NF-κB plasmid, containing luciferase reporter gene[57] with turbofect reagent (Carlo Erba Reagents). After 24 h, cells were seeded in 48-well plates (40.000 cells per well). On the next day, cells were incubated with our compounds for 2 h (pre-treatment) and then TNF-α was added in every well at (10 ng/ml). After 5–6 h, luciferase activity was measured by using Neolite reagent (PerkinElmer Life Sciences, Waltham, MA) according to the manufacturer’s instructions.

[3] = system: HCT-116 cells; experiment: MTT assay, cytotoxicity on HCT-116; type: cell-based, human; details: for IC50 at 48 h: human, HCT-116 cells; for IC50 at 48 h / IC50: MTT assay, NA = not active up to 100 μM, read-out: Cytotoxicity (HCT-116) IC50 ±SD, 48 h
Experimental: Following the same protocol used for previous cytotoxicity assays by N. Ferri[55], cells were seeded in 48-well plate (40.000 cells/well) and, after 24 h, they were incubated with different concentrations of our compounds for 48 h.
The determination of the conversion of MTT (3-(4,5-dimethyl-2-thiazolyl)-2,5-diphenyl-2H-tetrazolium bromide) to formazan was determined by using a commercially available kit (Millipore, Billerica, MA), according to the manufacturer’s instructions.

[4] = biological target: T2, SH2-domain of STAT1 (Homo sapiens, UniProt P42224); experiment: STAT AlphaScreen-based assay (STAT1 selectivity); type: binding; details: for inhibition at 30 µM: read-out: STAT1 % inhibition ± SD at 30 μM, 30 μM; for IC50: read-out: STAT1 IC50 ±SD
T2 sequence (P42224 1-750): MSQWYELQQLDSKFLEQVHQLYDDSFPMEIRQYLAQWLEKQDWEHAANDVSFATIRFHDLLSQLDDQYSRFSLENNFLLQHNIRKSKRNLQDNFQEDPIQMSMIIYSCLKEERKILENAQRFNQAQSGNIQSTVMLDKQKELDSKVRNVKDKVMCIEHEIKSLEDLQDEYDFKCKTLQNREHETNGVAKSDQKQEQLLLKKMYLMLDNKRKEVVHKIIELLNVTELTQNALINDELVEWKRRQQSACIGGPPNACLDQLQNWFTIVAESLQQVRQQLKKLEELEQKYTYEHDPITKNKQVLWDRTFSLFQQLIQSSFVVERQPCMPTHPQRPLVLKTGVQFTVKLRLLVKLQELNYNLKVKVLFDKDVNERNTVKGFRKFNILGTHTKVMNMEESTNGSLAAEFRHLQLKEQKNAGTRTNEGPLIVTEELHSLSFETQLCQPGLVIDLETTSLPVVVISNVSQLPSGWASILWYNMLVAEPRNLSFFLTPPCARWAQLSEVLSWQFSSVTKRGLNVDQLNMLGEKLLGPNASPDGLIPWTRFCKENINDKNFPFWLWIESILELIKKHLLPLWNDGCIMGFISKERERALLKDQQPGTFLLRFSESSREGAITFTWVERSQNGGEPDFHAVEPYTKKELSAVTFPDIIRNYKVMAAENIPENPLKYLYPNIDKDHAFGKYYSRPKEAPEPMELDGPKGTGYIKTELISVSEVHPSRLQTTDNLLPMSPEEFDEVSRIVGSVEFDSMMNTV
Experimental: STAT3 inhibitory activity of the described compounds was tested by the AlphaScreen-based assay to evaluate the potential inhibition of the interaction between STAT3-SH2 domain and pTyr-containing peptides according to the previously reported procedure. For the most interesting compounds, selectivity tests versus STAT1 were performed.
The new sulfurated-drug hybrids, together with their parent compounds have been submitted to the AlphaScreen-based assay, to investigate their ability to bind STAT3 directly, through the evaluation of the inhibition of the binding of SH2-containing proteins to their correspondent phosphopeptides, the physiological ligands. […] Since AlphaScreen is a cell-free assay, not always there is a correspondence between the potency of STAT3 inhibition and cytotoxicity, probably due to not optimal physicochemical properties of the tested compounds, such as solubility and chemical stability in the culture medium and cell permeation.

[5] = system: STAT3 reporter activity in HeLa cells; experiment: STAT3 luciferase reporter gene assay; type: cell-based; details: Homo sapiens, 2 h pretreatment, oncostatin M 10 ng/ml 4 h, read-out: STAT3 reporter assay (HeLa) IC50 ±SD
Experimental: STAT3 reporter HeLa stable cell lines (Signosis Inc, Santa Clara, CA) were incubated in a 96-well microplate for 24 h. Cells were pretreated with test compounds for 2 h, and 10 ng/ml (w/v) of oncostatin M were applied and incubated for 4 h. Cells were washed with medium not supplemented with phenol red, and Steady-Glo® reagent (Promega, Madison, WI) was applied. After 15 min incubation, the signals were detected by ARVO Light 1420 (PerkinElmer Life Sciences, Waltham, MA). The relative signal intensity was calculated in each well as the ratio for the mean signal of vehicle.

[6] = system: lymphocytic leukemia P388; parameters: method as in PMID 8003178; details: injected i.p. in mice, 24 h after the tumor implants; data from National Cancer Institute; cited from earlier work
[7] = biological target: T1, STAT3-SH2 domain; parameters: method as in PMID 28097912; details: maximum tested concentration 30 μM; read-out: STAT3-SH2 domain binding IC50 (AlphaScreen), previously described hybrids; cited from earlier work
[8] = system: different tumoral cell lines; parameters: method as in PMID 18266964, PMID 22212895; details: cited from earlier work
[9] = system: PC3 subcutaneous xenografts; parameters: method as in PMID 18266964; details: in vivo; cited from earlier work
[10] = system: human smooth muscle cells (hSMC); experiment: Cytotoxicity versus normal human smooth muscle cells; type: cell-based
[11] = system: MCF-7 (hormone sensitive breast cancer) cells; experiment: Cytotoxicity against MCF-7 cells; type: cell-based; details: in comparison to HCT-116

T1 sequence (P40763 whole entry, the tested form may be a part): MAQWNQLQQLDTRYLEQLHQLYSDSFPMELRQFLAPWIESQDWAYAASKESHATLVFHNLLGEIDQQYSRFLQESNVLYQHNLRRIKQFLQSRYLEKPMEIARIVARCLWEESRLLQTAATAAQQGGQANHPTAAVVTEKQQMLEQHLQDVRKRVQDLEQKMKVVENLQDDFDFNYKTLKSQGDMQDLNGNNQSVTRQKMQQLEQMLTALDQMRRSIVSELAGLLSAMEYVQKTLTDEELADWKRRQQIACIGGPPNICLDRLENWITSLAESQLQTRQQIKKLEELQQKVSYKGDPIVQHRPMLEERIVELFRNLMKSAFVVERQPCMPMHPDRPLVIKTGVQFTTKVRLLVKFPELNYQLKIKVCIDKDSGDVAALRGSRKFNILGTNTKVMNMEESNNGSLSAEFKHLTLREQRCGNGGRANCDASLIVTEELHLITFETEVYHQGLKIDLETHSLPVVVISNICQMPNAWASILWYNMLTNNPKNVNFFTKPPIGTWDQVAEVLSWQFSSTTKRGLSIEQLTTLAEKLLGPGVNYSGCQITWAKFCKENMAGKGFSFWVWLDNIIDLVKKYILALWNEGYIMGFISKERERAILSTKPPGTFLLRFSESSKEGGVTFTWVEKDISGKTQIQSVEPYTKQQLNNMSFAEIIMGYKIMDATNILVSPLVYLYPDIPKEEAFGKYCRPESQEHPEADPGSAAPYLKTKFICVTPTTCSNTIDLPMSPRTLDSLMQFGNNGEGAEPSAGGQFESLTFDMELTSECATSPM

SMILES | IC50 [1] [µM] | inhibition at 30 µM [1] [%] | IC50 [2] [µM] | IC50 at 48 h [3] [µM] | inhibition at 30 µM [4] [%] | IC50 [4] [µM] | IC50 [5] [µM] | IC50 [3] [µM] | melting point | activity against lymphocytic leukemia P388 [6] | fold increase of inhibitory potency on STAT3 ([1]; in comparison to rosmaricine) [fold] | IC50 [7] [µM] | in vitro antiproliferative activity [8] | growth of PC3 in subcutaneous xenografts [9] | fold increase of antiproliferative activity ([3]; HCT-116, in comparison to rosmaricine) [fold] | selectivity index (hSMC versus HCT-116) [10] | IC50 ([10]; Homo sapiens, HSMC) [µM] | cytotoxicity against MCF-7 cells [11]
Oc1ccc(-c2cc(=S)ss2)cc1 [Compound 5, 5-(4-hydroxyphenyl)-1,2-dithiol-3-thione] | > 30 | 43.7 | 36.7 ± 11.4 | 71.2 ± 15 | – | – | – | – | – | – | – | – | – | – | – | – | – | –
CC(C)c1cc2c(c(O)c1O)C13CCCC(C)(C)C1C(OC3=O)C2N (stereo not drawn) [Compound 30, rosmaricine] | 1.9 ± 0.1 | 99.7 | 43.4 ± 6.9 | 65 | 91.8 | 10 ± 0.6 | 42.4 ± 2.4 | 65.2 ± 2.3 | 198.2 to 202.5 °C | inactive or endowed with borderline activity | – | – | – | – | – | – | – | –
CS(=O)(=O)SCCOC(=O)/C=C/c1ccc(O)c(O)c1 [Compound 21, (E)-2-(methylsulfonylthio)ethyl 3-(3,4-dihydroxyphenyl)acrylate] | 0.8 ± 0.2 | 100.1 ± 0.1 | 128 ± 8.9 | 123 ± 17.3 | 85.7 ± 4.3 | 17 ± 1.2 | 60.6 ± 2.8 | – | 133.1 to 134.8 °C | – | – | – | – | – | – | – | – | –
C=CCSSCCOC(=O)/C=C/c1ccc(O)c(O)c1 [Compound 23, (E)-2-(allyldisulfanyl)ethyl 3-(3,4-dihydroxyphenyl)acrylate] | 5.5 ± 0.2 | 70 ± 1.7 | 163 ± 11.1 | 73 ± 8 | 37.7 ± 7.5 | > 30 | 94.4 ± 26.1 | – | – | – | – | – | – | – | – | – | – | –
CC(C)c1cc2c(c(O)c1O)C13CCCC(C)(C)C1C(OC3=O)C2NC(=O)c1ccc(-c2cssc2=S)cc1 (stereo not drawn) [Compound 33, N-[4-(3-thioxo-3H-1,2-dithiol-4-yl)benzoyl]rosmaricine] | 2.9 ± 0.2 | 94.5 ± 0.4 | 73 ± 13.2 | 65.4 ± 3.9 | 58.8 ± 5.9 | 19.7 ± 4 | > 100 | – | 243.2 to 249.7 °C | – | – | – | – | – | – | – | – | –
CC(C)c1cc2c(c(O)c1O)C13CCCC(C)(C)C1C(OC3=O)C2NC(=O)CCCCSS(C)(=O)=O (stereo not drawn) [Compound 31, N-[5-(methylsulfonyl)thiopentanoyl]rosmaricine] | 0.2 | 100.1 ± 0.1 | 53.3 ± 10.9 | 73.8 ± 0.9 | 99.9 ± 0.3 | 2.8 ± 0.1 | > 100 | – | 121.1 to 124.2 °C (dec.) | – | 10 | – | – | – | – | – | – | –
COc1cc(/C=C/C(=O)OCCSS(C)(=O)=O)ccc1O [Compound 14, (E)-2-(methylsulfonylthio)ethyl 3-(4-hydroxy-3-methoxyphenyl)acrylate] | 0.9 | 110.1 ± 0.2 | 116 ± 2.9 | 50.4 ± 5.9 | 110.5 ± 0.6 | 7 ± 0.7 | 65.4 ± 1 | – | – | – | – | – | – | – | – | – | – | –
CCCC(CCC)C(=O)OCCSS(C)(=O)=O [a, 2-((methylsulfonyl)thio)ethyl 2-propylpentanoate] | – | – | – | – | – | – | – | – | – | – | – | 0.7 | good antiproliferative activity in micromolar concentrations | inhibited the growth of PC3 in subcutaneous xenografts | – | – | – | –
C=CCSSCCC(=O)NC1c2cc(C(C)C)c(O)c(O)c2C23CCCC(C)(C)C2C1OC3=O (stereo not drawn) [Compound 32, N-[3-(allyldisulfanyl)propanoyl]rosmaricine] | 2.3 ± 0.4 | 99.5 | 13 ± 0.7 | 3.5 ± 2.8 | 23.9 ± 0.4 | > 30 | 37 ± 0.8 | – | 206.9 to 209.2 °C | – | – | – | – | – | 19 | 6 | 21.2 | confirmed, even at lower level
O=C(/C=C/c1ccc(O)c(O)c1)Oc1ccc(-c2cc(=S)ss2)cc1 [Compound 24, (E)-4-(3-thioxo-3H-1,2-dithiol-5-yl)phenyl 3-(3,4-dihydroxyphenyl)acrylate] | 13.2 ± 0.9 | 66.7 ± 0.5 | 40.6 ± 3 | 46.7 | 21.5 ± 1.8 | > 30 | 40 ± 1.5 | 46.7 ± 4.1 | 199.5 to 201.5 °C | – | – | – | – | – | – | – | – | –
COc1cc(/C=C/C(=O)OCCCCSS(C)(=O)=O)ccc1O [Compound 15, (E)-4-(methylsulfonylthio)butyl 3-(4-hydroxy-3-methoxyphenyl)acrylate] | 0.3 | 100 ± 0.1 | 94 ± 4.6 | 64.4 ± 9.1 | 86 ± 6.7 | 1.8 ± 0.4 | 57.5 ± 1.1 | – | – | – | – | – | – | – | – | – | – | –
